Laboratory results from patent US8063054B2, “Method of treatment of retinal ischemia with diazoxide” (Centre National de la Recherche Scientifique-CNRS, priority 2003, dated 2011).

Assays:
[1] = tested on: Brown Norway rats; assay: Histological analysis of the cytoarchitecture of the retina after retinal ischemia; format: in vivo, rat; settings: 7 days after the end of the ischemia; treated 30 min or 24 hours after ischemia, compared to non-treated ischemia group
Experimental: Brown Norway rats from the scientific stock farm IFFA CREDO with a weight between 200 and 250 g were received and placed into individual cages in an air-conditioned room (temperature between 18 and 20° C.) with a light/dark cycle (12 h/12 h). During the study the animals had free access to food and water.
Diazoxide was dissolved in a pure solution of dimethyl sulfoxide (DMSO). The solution obtained in this manner was diluted in sterile physiological serum to obtain a final ophthalmic solution at 0.01% active principle and 0.4% DMSO.
The local administration was performed by instillation of 10 μl of the ophthalmic solution in the conjunctival cul-de-sac of the right eye 30 minutes after the end of the ischemia for the 1st group and 24 hours after the start of the reperfusion for the second group, then each day for 4 hours.
After general anesthesia of the rats by intraperitoneal injection of sodium pentobarbital (60 mg/kg) the pupil was dilated by instillation of a drop of Mydriaticum®. The anterior chamber of the right eye, previously anesthetized by instillation of a drop of oxybuprocaine, was cannulated with a 30G needle connected to a reservoir containing a Hank's balanced salt solution. […] Ischemia was characterized by the disappearance of the blood flow in the retinal vessels, determined by direct opthalmoscopy of the ocular fundus. […]

[2] = tested on: Brown Norway rats; assay: Electroretinography (A and B wave amplitude) after retinal ischemia induced by elevation of the intraocular pressure; format: in vivo, rat
Experimental: Brown Norway rats from the scientific stock farm IFFA CREDO with a weight between 200 and 250 g were received and placed into individual cages in an air-conditioned room (temperature between 18 and 20° C.) with a light/dark cycle (12 h/12 h). During the study the animals had free access to food and water. Diazoxide was dissolved in a pure solution of dimethyl sulfoxide (DMSO). The solution obtained in this manner was diluted in sterile physiological serum to obtain a final ophthalmic solution at 0.01% active principle and 0.4% DMSO. The local administration was performed by instillation of 10 μl of the ophthalmic solution in the conjunctival cul-de-sac of the right eye 30 minutes after the end of the ischemia for the 1st group and 24 hours after the start of the reperfusion for the second group, […] After general anesthesia of the rats by intraperitoneal injection of sodium pentobarbital (60 mg/kg) the pupil was dilated by instillation of a drop of Mydriaticum®. The anterior chamber of the right eye, previously anesthetized by instillation of a drop of oxybuprocaine, was cannulated with a 30G needle connected to a reservoir containing a Hank's balanced salt solution. The retinal ischemia, lasting 40 min, was induced by elevation of the reservoir containing the saline solution to a height of 185 cm, permitting an intraocular pressure to 130 mm Hg to be produced. Ischemia was characterized by the disappearance of the blood flow in the retinal vessels, determined by direct opthalmoscopy of the ocular fundus. The rats were sacrificed after a period of reperfusion of 7 days. All the rats that developed a cataract or a hemorrhage were separated from the study. The electroretinography is performed under general anesthesia of the rats after dilation of the pupil by instillation of a drop of Mydriaticum®. The animal is previously adapted for 12 hours to darkness, then installed on its flank in a Faraday cage. The measuring electrode, constituted by a silver chloride ring (Ag/AgCl) is placed on the cornea of the right eye. The reference electrode constituted by a silver chloride needle is inserted in the ear of the animal. All these operations are performed under red light. The luminous stimuli are produced by a stroboscope placed at 25 cm from the eye in the visual axis. The flash of white light lasting 10 μs and with an intensity of 2.5·10^3 cd·s·m^−2 permits a maximal response of the retina. The recovery of the electrical signal, its amplification, transmission and display on a microcomputer are managed by a compact system. An integrated software permits the acquisition of the data as well as the determination of the amplitudes and of the latency times of the different waves of the electroretinogram (ERG). The ERG in the rat is composed of two waves; a corneo-negative wave or A wave reflecting the activity of the photoreceptors followed by a wave of positive polarity or B wave reflecting the activity of the Müller cells. The ERG's are recorded for all the groups at time t=0 before induction of ischemia, then at times 1, 2, 3 and 7 days after the start of the reperfusion. The pre-ischemic amplitudes of the A and B waves of the ERG are very variable from one group to the other, but also within one and the same group. Recovery is expressed by percentage of the initial value and the difference of effectiveness between each treatment is analyzed with the aid of the U test of Mann Whitney. The significance threshold is 0.02.

[3] = diazoxide 0.01% instilled 30 minutes after the start of the reperfusion and every day for 4 days, 3 days after the start of the reperfusion, ± standard deviation, n=7
[4] = diazoxide 0.01% instilled 30 minutes after the start of the reperfusion and every day for 4 days, 7 days after the end of the ischemia
[5] = diazoxide applied 24 hours after the start of the reperfusion, time 3 days
[6] = diazoxide applied 24 hours after the start of the reperfusion, time 7 days

- reduction of the electrical activity of the retina (ERG profiles, FIG. 1C-1D) ([2]; 7 days after the end of the ischemia, groups treated 30 min or 24 hours after ischemia, compared to non-treated ischemia group): much less drastic
SMILES: CC1=Nc2ccc(Cl)cc2S(=O)(=O)N1 [diazoxide, 7-chloro-3-methyl-2H-1,2,4-benzothiadiazine-1,1-dioxide]
- preservation of the layers of the ganglionic cells and the photoreceptor cells (FIGS. 3C and 3D) [1]: better presservation
- thickness of the internal plexiform and nuclear layers of the retina (FIGS. 3C and 3D) [1]: less severe reduction
- amplitude of wave A of the electroretinogram, recovery in % of the initial values [2, 3]: 97.01±13%
- amplitude of wave B of the electroretinogram, recovery in % of the initial values [2, 3]: 96.36±11%
- amplitude of wave A of the electroretinogram, recovery in % of the initial values [2, 4]: 88.10±14%
- amplitude of wave B of the electroretinogram, recovery in % of the initial values [2, 4]: 75±14%
- amplitude of wave A of the electroretinogram, recovery in % of the initial values [2, 5]: 84.26±10%
- amplitude of wave B of the electroretinogram, recovery in % of the initial values [2, 5]: 88.17±14%
- amplitude of wave A of the electroretinogram, recovery in % of the initial values [2, 6]: 87.59±16%
- amplitude of wave B of the electroretinogram, recovery in % of the initial values [2, 6]: 70.59±16%
- effect on the recovery of the retinal function (statistical analysis, Mann Whitney U test) ([2]; instilled 30 min or 24 hours after the end of the ischemia, compared to the non-treated group caused to have ischemia): highly significant effect
